This note sets out measurements from patent publication US20230088719A1, “USE OF BMP INHIBITORS IN THE TREATMENT OF MOLAR PREGNANCY” (BOGAZICI UNIVERSITESI, priority 2020, published 2023).

Entries after “also recorded” stand apart in the source; their conditions may differ.

This test has as its system complete mole iPS cells. The test is described as follows: Trophoblast differentiation of complete mole iPS cells under AP conditions with BMP receptor inhibitor LDN193189. The class given is cell-based, human. As to the method:
FIG. 9—Preventing trophoblast differentiation in complete mole iPS cells by inhibition of the BMP signaling pathway. Cells are exposed to vehicle (DMSO) or BMP receptor inhibitor LDN193189 (100 nM) under AP conditions. (A) Changes in colony morphology by LDN193189 treatment. Pictures were obtained with 4× magnification. (B) Heat map showing the expression of trophoblast markers during differentiation of healthy and complete mole iPS cells (n=2 biological replicas) (C-D) Violin plot representation of pluripotency and trophoblast markers (n=2, ****p<0.001, Wilcoxon rank total test) (E) RT-qPCR for trophoblast and stem cell markers. Sidak multiple comparison tests were applied following 2-way ANOVA, *p<0.05, **p<0.01, ***p<0.005, ****p<0.001. Bars; showing±Standard Deviation. (F) Representative immunoblots for CDX2, HLA-G, KRT7 and OCT3/4.
In accordance the purpose of the present invention, the inventors applied it to the nutrition fluid of cells under LDN193189 AP conditions to test whether BMP receptor inhibitors can attenuate trophoblast differentiation or not. […] (FIG. 10A)
Trophoblast cells were formed from the obtained IPSCs under BAP or AP conditions. IPS cells were routinely kept on MEFs with hES medium (10 ng/mL FGF2). For trophoblast differentiation, 2.4×10^4 cells per square centimeter were seeded on matrigel-coated plates with conditioned hES medium through a monolayer of mitomycin-C treated MEF nutrient cells (MEF-CM) containing FGF2 (10 ng/mL). Next day, the medium was changed as MEF-CM containing 4 ng/mL FGF2. Next day, the medium was changed as BMP4 (10 ng/mL) containing unconditioned (BAP) hESC basal medium with MEF nutrient cells (RD Systems), ALK4/5/7 inhibitor, A83-01 (1 μM) (Tocris) and FGF2-signal inhibitor PD173074 […] (Sigma) (22, 27, 28). Control cultures were grown in the presence of FGF2 and in the absence of BAP. The medium was refreshed daily.
Total RNA was extracted using the Direct-zol RNA Isolation Kit (Zymogen) and cDNA was synthesized using the Sensifast cDNA synthesis kit (Bioline) as described by the manufacturer. Sequences of primers used in gene expression were synthesized by Macrogen as listed in table 3. qRT-PCR was performed on Exicycler™ 96 (Bioneer) using SensiFAST™ SYBRQR No-ROX Kit (Bioline). qRT-PCR results were analysed by the Ct method for relative amounts by taking GAPDH or HPRT as internal controls.
Cells were harvested in RIPA lysis buffer (150 mM NaCl, 1% NP40, 0.5% sodium deoxycholate, 0.1% SDS, 50 mM Tris pH 7.4) supplied with protease and phosphatase inhibitors (Roche, Switzerland). TCA-acetone precipitation was performed for the supernatants. Protein samples were applied to the SDS gel. Semi-dry transfer was performed by using Blotting papers (Sigma-Aldrich, USA) and PVDF membrane (Millipore, Ireland). After blocking with 5% non-fat dry milk, membranes were incubated overnight with primary antibodies (1:1000) at +4° C. Next day, the membrane was incubated with secondary antibodies connected with 1:2000 HRP according to the host origin of the primary antibody. Between all steps, membranes were washed 3 times with TBS-T. Immunoblot membranes were visualized with the Syngene documentation system by using ECL HRP Substrate (Advansta, USA).
Total RNA was extracted by using the Direct-zol RNA Isolation Kit (Zymogen) according to the protocol of the manufacturer (n=2 in all cases). Library preparation procedure by using Truseq strand mRNA LT Sample Preparation Kit (Illumina) and RNA sequencing procedure by using Hiseq2500 (Illumina) were performed by Macrogen Inc. (Korea). RNA sequence data were processed and interpreted with the Genialis visual computing platform (www.genialis.com). Briefly, RNA sequence readings were subjected to correction (BBDuk), mapping (STAR) and expression quantitation (featureCounts) procedures, respectively. The readings were mapped to Homo sapiens GRCh38 (Ensembl, version 92, ERCC). […]

[1] abbreviates: complete mole cells, BMP pathway inhibition with LDN193189 100 nM, AP conditions, FIG. 9F.
[2] abbreviates: complete mole cells, LDN193189 100 nM, AP conditions, FIG. 9C-9D.

Turning to `c1ccc2c(-c3cnn4cc(-c5ccc(N6CCNCC6)cc5)cnc34)ccnc2c1` [LDN193189], where the note is “LDN193189 100 nM, AP conditions, heat map of trophoblast markers FIG. 9B”, the “trophoblast differentiation of complete mole cells” value was “inhibits trophoblast differentiation of complete mole cells; also recorded: suppression of excessive trophoblast differentiation”. Also, the “hierarchical clustering at whole transcriptome level” value (cells treated with LDN193189, FIG. 10D) was “clustered with non-differentiated iPS cells”. Moreover, for the setting “complete mole cells, BMP pathway inhibition with LDN193189 100 nM, AP conditions, FIG. 9E”, the “trophoblast gene expression by qRT-PCR” value is given as “decrease in trophoblast gene expression”. In addition, under setting [1], the “CDX2, KRT7, HLA-G expression (immunoblot)” value is “stopped CDX2, KRT7, HLA-G increase in expression” and the “OCT3/4 expression (immunoblot)” value is on record as “prevented decrease in expression (downregulation) of OCT3/4”. Also, the “colony morphology (light microscopy)” value (complete mole cells, LDN193189 100 nM, AP conditions (A83-01+PD173074, no BMP4), vs DMSO vehicle, FIG. 9A) is “morphological phenotype similar to healthy cells”. Under setting [2], the “expression of pluripotency markers (RNA sequencing, violin plot)” value is “remained highly expressed” and the “global expression of trophoblast markers (RNA sequencing, violin plot)” value was “decreased”.
